pIC50: −log10 of the molar value. Several values for one entry are separate records, joined by “and”; a condition that tells them apart may be missing. Equal entries are not always repeated. Where two headings read alike, the source gives them in different places. Blank lines part the entries; values can stand above or below the compound they belong to.
Key:
Parameters in all cases: made in house; host or cells: Saccharomyces cerevisiae FGY217
[1] = target: T1, human SLC35B1 (wild type) (Homo sapiens, UniProt P78383); format: binding; settings: for ΔTm (average melting temperature increase) / ΔTm, individual titrations (source data): 1 mM nucleotide; for ΔTm (average melting temperature increase): purified wild-type SLC35B1–GFP; for ΔTm, individual titrations (source data): wild-type SLC35B1–GFP; for GFP fluorescence after heating (source data Fig 1B): 1 mM substrate
T1 sequence (P78383 1-322): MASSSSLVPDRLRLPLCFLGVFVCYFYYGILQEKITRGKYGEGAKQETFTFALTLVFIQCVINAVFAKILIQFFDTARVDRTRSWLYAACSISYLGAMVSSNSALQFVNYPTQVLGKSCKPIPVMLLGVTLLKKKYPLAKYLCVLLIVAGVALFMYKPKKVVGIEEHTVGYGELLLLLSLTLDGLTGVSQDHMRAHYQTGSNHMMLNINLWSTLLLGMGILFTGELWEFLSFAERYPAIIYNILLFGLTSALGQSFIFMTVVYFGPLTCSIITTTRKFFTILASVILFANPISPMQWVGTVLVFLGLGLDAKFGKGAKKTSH

[2] = target: T1, human SLC35B1 (wild type); experiment: STD NMR of nucleotide interaction with SLC35B1 proteoliposomes; format: binding; settings: for Total STD amplification factor (STD NMR signal): 500 μM substrate
[3] = target: T1, human SLC35B1 (wild type); experiment: Competitive uptake assay: [3H]ADP uptake with 1 mM cold nucleotide; format: biochemical; settings: for Normalized SLC35B1-mediated uptake of [3H]ADP in competition with cold nucleotide: 1 mM external cold nucleotide, proteoliposomes preloaded with 1 mM ATP; for [3H]ADP uptake in the presence of cold competitor nucleotide (individual replicates; no-competitor control about 100): competitor 1mM, sheet ED 6F, SLC35B1 proteoliposomes
[4] = target: T1, human SLC35B1 (wild type); experiment: IC50 for competitive inhibition of [3H]ADP uptake in proteoliposomes; format: biochemical; settings: for pIC50: wild-type SLC35B1 proteoliposomes
[5] = target: T1, human SLC35B1 (wild type); experiment: Uptake of [3H]ATP or [3H]ADP into nucleotide-preloaded SLC35B1 proteoliposomes; format: biochemical; settings: for radiolabelled nucleotide uptake into proteoliposomes preloaded with the named nucleotide (individual replicates; ATP-loaded about 100): 2 minutes, sheet ED 6G, internal (preloaded) nucleotide as labelled; for [3H]ADP import with nucleotide preloading, relative to ATP preloading: liposomes preloaded with 1 mM nucleotide; for Single time point (1 min) uptake of [3H]-ADP by proteoliposomes preloaded with the nucleotide: preload 1 mM of the labelled nucleotide
[6] = external cold nucleotide 100 uM

Structure (SMILES): Nc1nc2c(ncn2[C@@H]2O[C@H](COP(=O)(O)OP(=O)(O)OP(=O)(O)O)[C@@H](O)[C@H]2O)c(=O)[nH]1 [GTP]
ΔTm (average melting temperature increase) [1]: poor thermostabilization | ΔTm, individual titrations (source data) [1]: 1.35 and 2.4 and 1.45 | 1H integral (off-resonance spectrum) [2]: 4.09E+10 | STD integral [2]: 2.66E+09 | Total STD amplification factor (STD NMR signal) [2]: low STD NMR signals | Normalized SLC35B1-mediated uptake of [3H]ADP in competition with cold nucleotide [3]: only weak competition | [3H]ADP uptake in the presence of cold competitor nucleotide (individual replicates; no-competitor control about 100) [3]: 82.2279 and 86.0047 and 83.9395 and 58.276 and 54.036 and 48.82 | Normalized [3H]-ADP uptake activity (IC50 curve) ([4]; external cold nucleotide 1 uM): 88.1 and 101.287 and 103.95 | Normalized [3H]-ADP uptake activity (IC50 curve) ([4]; external cold nucleotide 10 uM): 84.475 and 90.925 and 119.487 | Normalized [3H]-ADP uptake activity (IC50 curve) [4, 6]: 92.075 and 105.213 and 83.1625 | Normalized [3H]-ADP uptake activity (IC50 curve) ([4]; external cold nucleotide 1000 uM): 48.75 and 67.325 and 73.7625 | Normalized [3H]-ADP uptake activity (IC50 curve) ([4]; external cold nucleotide 100000 uM): 2.4125 and 1.7125 and 1.675 | pIC50 [4]: 2.46

ΔTm (average melting temperature increase) [1]: 1.1 °C | ΔTm, individual titrations (source data) [1]: 1.3 and 1.29 and 0.78
Structure (SMILES): Nc1ncnc2c1ncn2[C@@H]1O[C@H](COP(=O)(O)O)[C@@H](O)[C@H]1O [AMP, adenosine monophosphate]
GFP fluorescence after heating (source data Fig 1B) ([1]; temperature 4): 106.601 and 104.432 and 95.3539 and 89.0072 and 98.5673 and 95.7555 | GFP fluorescence after heating (source data Fig 1B) ([1]; temperature 10): 120.178 and 88.2039 and 92.06 and 93.2651 | GFP fluorescence after heating (source data Fig 1B) ([1]; temperature 20): 106.039 and 98.5673 and 92.7027 and 90.0516 and 90.7747 and 95.3539 | GFP fluorescence after heating (source data Fig 1B) ([1]; temperature 30): 90.132 and 77.6476 and 78.8286 and 77.1736 and 79.5837 and 81.6163 | GFP fluorescence after heating (source data Fig 1B) ([1]; temperature 40): 21.7011 and 19.6043 and 15.5232 and 15.3143 and 15.5553 and 16.68 | GFP fluorescence after heating (source data Fig 1B) ([1]; temperature 50): 5.771 and 5.947 and 3.195 and 3.312 and 3.387 and 3.526

Structure (SMILES): Nc1ncnc2c1ncn2[C@@H]1O[C@H](COP(=O)(O)OP(=O)(O)OP(=O)(O)O)[C@@H](O)[C@H]1O [[^3H]ATP]
One-minute uptake of [3H]ATP by SLC35B1 proteoliposomes ([5]; Unloaded (preloaded with buffer)): 0.4851

Structure (SMILES): O=c1ccn([C@@H]2O[C@H](COP(=O)(O)OP(=O)(O)O)[C@@H](O)[C@H]2O)c(=O)[nH]1 [UDP, uridine diphosphate]
Normalized SLC35B1-mediated uptake of [3H]ADP in competition with cold nucleotide [3]: more effective at competition | [3H]ADP uptake in the presence of cold competitor nucleotide (individual replicates; no-competitor control about 100) [3]: 0.8481 and 1.885 and 1.122 and 21.524 and 20.444 and 14.96

pIC50 [4]: 4.54
Structure (SMILES): O=c1ccn([C@@H]2O[C@H](COP(=O)(O)OP(=O)(O)OP(=O)(O)O)[C@@H](O)[C@H]2O)c(=O)[nH]1 [UTP, uridine triphosphate]

Structure (SMILES): Nc1ccn([C@@H]2O[C@H](COP(=O)(O)OP(=O)(O)O)[C@@H](O)[C@H]2O)c(=O)n1 [CDP]
Normalized SLC35B1-mediated uptake of [3H]ADP in competition with cold nucleotide [3]: more effective at competition | [3H]ADP uptake in the presence of cold competitor nucleotide (individual replicates; no-competitor control about 100) [3]: 1.97 and 2.619 and 2.963 and 13.22 and 12.328 and 14.044

ΔTm, individual titrations (source data) [1]: 2.66 and 3.39 and 2.37 | [3H]ADP import with nucleotide preloading, relative to ATP preloading [5]: approximately 30% | Normalized SLC35B1-mediated uptake of [3H]ADP in competition with cold nucleotide [3]: strong competition | Normalized [3H]-ADP uptake activity (IC50 curve) ([4]; external cold nucleotide 0.1 uM): 103.844 and 97.7104 and 98.4453 | Normalized [3H]-ADP uptake activity (IC50 curve) ([4]; external cold nucleotide 1 uM): 95.8764 and 97.0509 and 95.3887 | Normalized [3H]-ADP uptake activity (IC50 curve) ([4]; external cold nucleotide 10 uM): 67.7481 and 70.5094 and 62.095 | Normalized [3H]-ADP uptake activity (IC50 curve) [4, 6]: 15.0773 and 20.2633 and 19.2811 | pIC50 [4]: 4.68
Structure (SMILES): Nc1ccn([C@@H]2O[C@H](COP(=O)(O)OP(=O)(O)OP(=O)(O)O)[C@@H](O)[C@H]2O)c(=O)n1 [CTP, cytidine triphosphate]
radiolabelled nucleotide uptake into proteoliposomes preloaded with the named nucleotide (individual replicates; ATP-loaded about 100) [5]: 34.7169 and 32.8215 and 35.0431 and 28.1 and 30.3083 and 22.2 | [3H]ADP uptake in the presence of cold competitor nucleotide (individual replicates; no-competitor control about 100) [3]: 12.014 and 11.0419 and 12.1535 and 17.168 and 20.672 and 19.484

[3H]ADP import with nucleotide preloading, relative to ATP preloading [5]: approximately 30% | Normalized SLC35B1-mediated uptake of [3H]ADP in competition with cold nucleotide [3]: strong competition | Normalized [3H]-ADP uptake activity (IC50 curve) ([4]; external cold nucleotide 0.1 uM, 0.1 µM): 98.9492 and 98.9864 | activity at 0.1 µM ([4]; external cold nucleotide 0.1 uM, read-out: Normalized [3H]-ADP uptake activity (IC50 curve)): 102% | Normalized [3H]-ADP uptake activity (IC50 curve) ([4]; external cold nucleotide 1 uM, 1 µM): 96.2847 and 99.2915 | activity at 1 µM ([4]; external cold nucleotide 1 uM, read-out: Normalized [3H]-ADP uptake activity (IC50 curve)): 90.8% | Normalized [3H]-ADP uptake activity (IC50 curve) ([4]; external cold nucleotide 10 uM, 10 µM): 69.0203 and 73.0881 | activity at 10 µM ([4]; external cold nucleotide 10 uM, read-out: Normalized [3H]-ADP uptake activity (IC50 curve)): 65% | Normalized [3H]-ADP uptake activity (IC50 curve) ([4]; external cold nucleotide 100 uM, 100 µM): 29.139 and 27.9119 | activity at 100 µM ([4]; external cold nucleotide 100 uM, read-out: Normalized [3H]-ADP uptake activity (IC50 curve)): 28.6%
Structure (SMILES): O=c1ccn([C@@H]2O[C@H](CO[P@@](=O)(O)O[P@@](=O)(O)OP(=O)(O)O)[C@@H](O)[C@H]2O)c(=O)[nH]1 (stereo in doubt) [UTP, uridine triphosphate]
radiolabelled nucleotide uptake into proteoliposomes preloaded with the named nucleotide (individual replicates; ATP-loaded about 100) [5]: 26.76 and 31.4277 and 36.8954 and 31.1375 and 33.6917 and 28.9625 | [3H]ADP uptake in the presence of cold competitor nucleotide (individual replicates; no-competitor control about 100) [3]: 11.6037 and 12.7556 and 12.0037 and 16.836 and 18.152 and 16.556

Structure (SMILES): Nc1ncnc2c1ncn2[C@@H]1O[C@H](COP(=O)(O)OP(=O)(O)NP(=O)(O)O)[C@@H](O)[C@H]1O [AMP–PNP, adenylyl imidodiphosphate]
1H integral (off-resonance spectrum) [2]: 2.67E+09 | STD integral [2]: 3.83E+08 | Total STD amplification factor (STD NMR signal) [2]: equivalent | Total STD amplification factor (STD NMR signal) ([2]; listed as AMP-PNP): 7.167 | Single time point (1 min) uptake of [3H]-ADP by proteoliposomes preloaded with the nucleotide [5]: equivalent | Single time point (1 min) uptake of [3H]-ADP by proteoliposomes preloaded with the nucleotide ([5]; listed as AMP-PNP): 7.11 and 6.164 and 6.553 | Normalized [3H]-ADP uptake activity (IC50 curve) ([4]; external cold nucleotide 0.01 uM, listed as ANP-PNP): 99.81 and 108.605 and 100.75 and 104.879 and 96.5643 and 94.0286 | Normalized [3H]-ADP uptake activity (IC50 curve) ([4]; external cold nucleotide 0.1 uM, listed as ANP-PNP): 114.525 and 102.005 and 84.315 and 93.8643 and 84.5 and 91.8286 | Normalized [3H]-ADP uptake activity (IC50 curve) ([4]; external cold nucleotide 1 uM, listed as ANP-PNP): 100.22 and 103.765 and 80.9 and 74.0571 and 74.9429

Source: paper PMC12267056 (Nature, 2025)
